As usually defined, the IC50 is the concentration needed to halve the response being measured.

For 26 molecules, IC50 results are on record in patent US20230148214A1, “INDAZOLES AND AZAINDAZOLES AS LRRK2 INHIBITORS” (ESCAPE Bio, Inc., priority 2020, published 2023).

The target of one test is T1, LRRK2 WT (Homo sapiens, UniProt Q5S007).
T1 construct: purchased Life Technologies PR8604B
Nature of the test: LRRK2 Kinase Activity Assay (LanthaScreen TR-FRET), wild type. Type of test: biochemical. The settings on record: recombinant wild type LRRK2, 25 μM ATP, 400 nM LRRKtide, 60 min; class symbols. In short, it runs like this: (§1)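 Recombinant wild-type or G2019S LRRK2 incubated with fluorescein-labeled LRRKtide (ERM-based) peptide, ATP and serially diluted compound for 60 min at room temperature.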
Background: In TR-FRET formats the signal depends on donor and acceptor labels being close together.

A further test concerns the target T2, LRRK2 G2019S (Homo sapiens, UniProt Q5S007, G2019S).
T2 construct: purchased Life Technologies PV4881
Nature of the test: LRRK2 Kinase Activity Assay (LanthaScreen TR-FRET), G2019S. The settings on record: recombinant G2019S-LRRK2, 25 μM ATP, 400 nM LRRKtide, 60 min; class symbols. The format is biochemical. In a few lines: as §1

T2 sequence (Q5S007 whole entry G2019S): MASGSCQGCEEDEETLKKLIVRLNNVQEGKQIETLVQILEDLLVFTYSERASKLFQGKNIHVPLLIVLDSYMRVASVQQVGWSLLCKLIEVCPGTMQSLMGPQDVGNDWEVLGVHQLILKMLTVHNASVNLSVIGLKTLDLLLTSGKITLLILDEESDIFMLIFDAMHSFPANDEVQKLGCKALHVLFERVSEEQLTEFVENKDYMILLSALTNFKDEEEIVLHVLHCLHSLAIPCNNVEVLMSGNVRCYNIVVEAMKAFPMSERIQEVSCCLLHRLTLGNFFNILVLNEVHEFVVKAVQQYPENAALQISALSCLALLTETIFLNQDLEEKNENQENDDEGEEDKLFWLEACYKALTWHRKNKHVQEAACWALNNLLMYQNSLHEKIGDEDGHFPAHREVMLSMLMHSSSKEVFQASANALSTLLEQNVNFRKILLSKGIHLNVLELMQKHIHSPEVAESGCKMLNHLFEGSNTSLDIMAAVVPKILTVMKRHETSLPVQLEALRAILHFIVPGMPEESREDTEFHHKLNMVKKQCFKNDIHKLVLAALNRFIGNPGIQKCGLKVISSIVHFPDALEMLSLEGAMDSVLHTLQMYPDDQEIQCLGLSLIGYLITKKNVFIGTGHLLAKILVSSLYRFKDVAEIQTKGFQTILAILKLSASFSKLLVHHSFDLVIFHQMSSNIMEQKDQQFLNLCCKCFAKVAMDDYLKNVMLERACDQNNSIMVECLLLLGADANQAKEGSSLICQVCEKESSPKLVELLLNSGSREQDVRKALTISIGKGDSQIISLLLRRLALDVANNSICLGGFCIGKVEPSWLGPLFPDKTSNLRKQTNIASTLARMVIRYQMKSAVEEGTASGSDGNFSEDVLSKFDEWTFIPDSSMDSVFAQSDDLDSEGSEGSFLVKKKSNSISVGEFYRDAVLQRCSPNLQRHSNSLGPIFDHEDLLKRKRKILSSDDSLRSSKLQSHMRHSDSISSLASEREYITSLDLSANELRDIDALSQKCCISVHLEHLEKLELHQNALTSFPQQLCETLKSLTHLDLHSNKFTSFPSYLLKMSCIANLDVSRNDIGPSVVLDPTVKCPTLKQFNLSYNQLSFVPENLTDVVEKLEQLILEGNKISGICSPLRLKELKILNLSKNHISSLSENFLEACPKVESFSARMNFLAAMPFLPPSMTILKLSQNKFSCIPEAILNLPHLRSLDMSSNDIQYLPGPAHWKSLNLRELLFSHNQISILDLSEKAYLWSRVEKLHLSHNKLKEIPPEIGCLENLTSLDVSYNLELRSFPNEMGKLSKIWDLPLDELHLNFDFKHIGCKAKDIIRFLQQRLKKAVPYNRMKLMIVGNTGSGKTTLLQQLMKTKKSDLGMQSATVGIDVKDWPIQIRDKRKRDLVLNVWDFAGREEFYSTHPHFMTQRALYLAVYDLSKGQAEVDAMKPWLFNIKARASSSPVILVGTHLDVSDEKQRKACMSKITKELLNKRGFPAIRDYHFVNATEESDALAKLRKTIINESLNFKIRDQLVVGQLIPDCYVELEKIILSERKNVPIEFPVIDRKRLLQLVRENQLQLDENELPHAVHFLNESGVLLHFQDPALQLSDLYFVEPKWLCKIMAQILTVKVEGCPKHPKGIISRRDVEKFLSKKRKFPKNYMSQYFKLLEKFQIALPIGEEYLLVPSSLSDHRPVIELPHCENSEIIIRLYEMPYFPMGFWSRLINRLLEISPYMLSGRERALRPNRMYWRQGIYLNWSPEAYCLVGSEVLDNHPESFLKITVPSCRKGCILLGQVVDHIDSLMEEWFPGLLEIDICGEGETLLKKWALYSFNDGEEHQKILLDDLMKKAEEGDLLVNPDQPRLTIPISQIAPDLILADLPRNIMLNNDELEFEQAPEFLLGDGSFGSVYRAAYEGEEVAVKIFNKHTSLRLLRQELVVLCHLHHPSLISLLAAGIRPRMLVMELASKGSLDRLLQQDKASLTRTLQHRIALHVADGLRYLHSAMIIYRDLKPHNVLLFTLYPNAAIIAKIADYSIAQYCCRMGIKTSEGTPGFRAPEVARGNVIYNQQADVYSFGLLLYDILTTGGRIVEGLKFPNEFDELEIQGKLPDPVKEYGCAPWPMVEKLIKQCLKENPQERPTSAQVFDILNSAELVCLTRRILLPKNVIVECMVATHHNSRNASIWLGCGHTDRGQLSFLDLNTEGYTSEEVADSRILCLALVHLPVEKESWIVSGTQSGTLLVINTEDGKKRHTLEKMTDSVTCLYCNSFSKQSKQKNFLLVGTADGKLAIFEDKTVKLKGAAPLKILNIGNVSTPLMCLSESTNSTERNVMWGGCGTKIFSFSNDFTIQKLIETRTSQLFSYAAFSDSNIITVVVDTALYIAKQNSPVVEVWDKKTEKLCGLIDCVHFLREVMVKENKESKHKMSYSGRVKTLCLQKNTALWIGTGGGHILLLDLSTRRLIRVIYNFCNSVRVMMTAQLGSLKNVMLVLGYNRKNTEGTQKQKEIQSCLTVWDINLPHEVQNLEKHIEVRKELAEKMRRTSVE
T1 sequence (Q5S007 whole entry): as the sequence (Q5S007 whole entry G2019S) above, with S2019G counted along it

For the molecule `N#Cc1ccc2c(c1)CCC[C@@H]2Nc1ccc2[nH]nc(I)c2c1` (single isomer, unassigned) [Example 15, enantiomer 2, 5-((3-Iodo-1H-indazol-5-yl)amino)-5,6,7,8-tetrahydronaphthalene-2-carbonitrile], the results for the IC50 at LRRK2 WT and on LRRK2 G2019S were 1000 to 10000 nM and 100 to 1000 nM, respectively.

`N#Cc1cnc2c(c1)CCC[C@@H]2Oc1ccc2[nH]nc(-c3cnco3)c2c1` (single isomer, unassigned) [Example 16, enantiomer 1, 8-((3-(Oxazol-5-yl)-1H-indazol-5-yl)oxy)-5,6,7,8-tetrahydroquinoline-3-carbonitrile]: the IC50 at LRRK2 WT and on LRRK2 G2019S was less than 100 nM in each case.

Turning to `N#Cc1ccc2c(c1)CCC[C@@H]2Oc1ccc2[nH]nc(-c3cnoc3)c2c1` (single isomer, unassigned) [Example 17, enantiomer 1, 5-((3-(Isoxazol-4-yl)-1H-indazol-5-yl)oxy)-5,6,7,8-tetrahydronaphthalene-2-carbonitrile], the IC50 on LRRK2 WT and on LRRK2 G2019S was less than 100 nM throughout.

Take `N#Cc1ccc2c(c1)CCC[C@@H]2Oc1ccc2[nH]nc(-c3cnoc3)c2c1` (single isomer, unassigned) [Example 17, enantiomer 2, 5-((3-(Isoxazol-4-yl)-1H-indazol-5-yl)oxy)-5,6,7,8-tetrahydronaphthalene-2-carbonitrile]: the IC50 was 100 to 1000 nM on LRRK2 WT and less than 100 nM on LRRK2 G2019S.

As to `N#Cc1ccc2c(c1)CCC[C@@H]2Oc1ccc2[nH]nc(-c3cnco3)c2c1` (single isomer, unassigned) [Example 18, enantiomer 1, 5-((3-(Oxazol-5-yl)-1H-indazol-5-yl)oxy)-5,6,7,8-tetrahydronaphthalene-2-carbonitrile], the IC50 at LRRK2 WT and on LRRK2 G2019S was less than 100 nM throughout.

In the case of `Cc1n[nH]c2ccc(O[C@H]3CCCc4cc(C#N)ccc43)cc12` (single isomer, unassigned) [Example 19, enantiomer 1, 5-((3-Methyl-1H-indazol-5-yl)oxy)-5,6,7,8-tetrahydronaphthalene-2-carbonitrile], the IC50 on LRRK2 WT and at LRRK2 G2019S was 100 to 1000 nM each time.

Take `Cc1n[nH]c2ccc(O[C@H]3CCCc4cc(C#N)ccc43)cc12` (single isomer, unassigned) [Example 19, enantiomer 2, 5-((3-Methyl-1H-indazol-5-yl)oxy)-5,6,7,8-tetrahydronaphthalene-2-carbonitrile]: the IC50 is 100 to 1000 nM on LRRK2 WT and less than 100 nM on LRRK2 G2019S.

`N#Cc1ccc2c(c1)CC[C@@H]2Oc1cc2c(-c3cnco3)n[nH]c2cn1` (single isomer, unassigned) [Example 20, enantiomer 1, 1-((3-(Oxazol-5-yl)-1H-pyrazolo[3,4-c]pyridin-5-yl)oxy)-2,3-dihydro-1H-indene-5-carbonitrile]: the IC50 at LRRK2 WT and at LRRK2 G2019S was less than 100 nM throughout.

Consider `N#Cc1ccc2c(c1)CC[C@@H]2Oc1cc2c(-c3cnco3)n[nH]c2cn1` (single isomer, unassigned) [Example 20, enantiomer 2, 1-((3-(Oxazol-5-yl)-1H-pyrazolo[3,4-c]pyridin-5-yl)oxy)-2,3-dihydro-1H-indene-5-carbonitrile], for which the IC50 on LRRK2 WT was 100 to 1000 nM; at LRRK2 G2019S, less than 100 nM.

As to `N#Cc1ccc2c(c1)CC[C@@H]2Nc1cc2c(-c3cnco3)n[nH]c2cn1` (single isomer, unassigned) [Example 21, enantiomer 1, 1-((3-(Oxazol-5-yl)-1H-pyrazolo[3,4-c]pyridin-5-yl)amino)-2,3-dihydro-1H-indene-5-carbonitrile], the IC50 on LRRK2 WT and on LRRK2 G2019S was less than 100 nM throughout.

Turning to `N#Cc1ccc2c(c1)CC[C@@H]2Nc1cc2c(-c3cnco3)n[nH]c2cn1` (single isomer, unassigned) [Example 21, enantiomer 2, 1-((3-(Oxazol-5-yl)-1H-pyrazolo[3,4-c]pyridin-5-yl)amino)-2,3-dihydro-1H-indene-5-carbonitrile], the 50% inhibitory concentration (IC50) at LRRK2 WT is 100 to 1000 nM; on LRRK2 G2019S, less than 100 nM.

For `Cc1c(C#N)ccc2c1CC[C@@H]2Oc1ccc2[nH]nc(-c3cnco3)c2c1` (single isomer, unassigned) [Example 22, enantiomer 1, 4-Methyl-1-((3-(oxazol-5-yl)-1H-indazol-5-yl)oxy)-2,3-dihydro-1H-indene-5-carbonitrile], the IC50 on LRRK2 WT and on LRRK2 G2019S was less than 100 nM each time.

For the molecule `N#Cc1cc2c(cc1F)[C@@H](Oc1ccc3[nH]nc(-c4cnco4)c3c1)CC2` (single isomer, unassigned) [Example 23, enantiomer 1, 6-Fluoro-1-((3-(oxazol-5-yl)-1H-indazol-5-yl)oxy)-2,3-dihydro-1H-indene-5-carbonitrile], the IC50 on LRRK2 WT and at LRRK2 G2019S was less than 100 nM in each case.

As to `N#Cc1ccc2c(c1F)CC[C@@H]2Oc1ccc2[nH]nc(-c3cnco3)c2c1` (single isomer, unassigned) [Example 24, enantiomer 1, 4-Fluoro-1-((3-(oxazol-5-yl)-1H-indazol-5-yl)oxy)-2,3-dihydro-1H-indene-5-carbonitrile], the IC50 at LRRK2 WT and at LRRK2 G2019S was less than 100 nM throughout.

As for `N#Cc1cc2c(cc1F)[C@@H](Nc1ccc3[nH]nc(-c4cnco4)c3c1)CC2` (single isomer, unassigned) [Example 25, enantiomer 1, 6-Fluoro-1-((3-(oxazol-5-yl)-1H-indazol-5-yl)amino)-2,3-dihydro-1H-indene-5-carbonitrile], the IC50 on LRRK2 WT and on LRRK2 G2019S was less than 100 nM each time.

Take `N#Cc1ccc2c(c1F)CC[C@@H]2Nc1ccc2[nH]nc(-c3cnco3)c2c1` (single isomer, unassigned) [Example 26, enantiomer 1, 4-Fluoro-1-((3-(oxazol-5-yl)-1H-indazol-5-yl)amino)-2,3-dihydro-1H-indene-5-carbonitrile]: the IC50 at LRRK2 WT and at LRRK2 G2019S was less than 100 nM each time.

`Cc1c(C#N)ccc2c1CC[C@@H]2Nc1ccc2[nH]nc(-c3cnco3)c2c1` (single isomer, unassigned) [Example 27, enantiomer 1, 4-methyl-1-((3-(oxazol-5-yl)-1H-indazol-5-yl)amino)-2,3-dihydro-1H-indene-5-carbonitrile]: the IC50 at LRRK2 WT and at LRRK2 G2019S was less than 100 nM throughout.

With `Cc1cc2c(cc1C#N)CC[C@@H]2Nc1ccc2[nH]nc(-c3cnco3)c2c1` (single isomer, unassigned) [Example 28, enantiomer 1, 6-Methyl-1-((3-(oxazol-5-yl)-1H-indazol-5-yl)amino)-2,3-dihydro-1H-indene-5-carbonitrile], the IC50 at LRRK2 WT is 100 to 1000 nM; at LRRK2 G2019S, less than 100 nM.

Turning to `Cc1cc2c(cc1C#N)CC[C@H]2Oc1ccc2[nH]nc(-c3cnco3)c2c1` (single isomer, unassigned) [Example 29, enantiomer 1, 6-Methyl-1-((3-(oxazol-5-yl)-1H-indazol-5-yl)oxy)-2,3-dihydro-1H-indene-5-carbonitrile], the IC50 on LRRK2 WT and on LRRK2 G2019S was less than 100 nM in each case.

Turning to `N#Cc1ccc2c(c1)CC[C@H]2Nc1ccc2[nH]nc(-c3cnco3)c2n1` (single isomer, unassigned) [Example 30, enantiomer 1, 1-((3-(Oxazol-5-yl)-1H-pyrazolo[4,3-b]pyridin-5-yl)amino)-2,3-dihydro-1H-indene-5-carbonitrile], the IC50 on LRRK2 WT and on LRRK2 G2019S was less than 100 nM in each case.

Consider `N#Cc1ccc2c(c1)CC[C@H]2Nc1ccc2[nH]nc(-c3cnco3)c2n1` (single isomer, unassigned) [Example 30, enantiomer 2, 1-((3-(Oxazol-5-yl)-1H-pyrazolo[4,3-b]pyridin-5-yl)amino)-2,3-dihydro-1H-indene-5-carbonitrile], for which the concentration for half-maximal inhibition (IC50) at LRRK2 WT was 100 to 1000 nM; at LRRK2 G2019S, less than 100 nM.

In the case of `N#Cc1ccc2c(c1)CC[C@H]2Oc1ccc2[nH]nc(-c3cnco3)c2n1` (single isomer, unassigned) [Example 31, enantiomer 1, 1-((3-(Oxazol-5-yl)-1H-pyrazolo[4,3-b]pyridin-5-yl)oxy)-2,3-dihydro-1H-indene-5-carbonitrile], the IC50 at LRRK2 WT and on LRRK2 G2019S was less than 100 nM throughout.

`N#Cc1ccc2c(c1)CC[C@H]2Oc1ccc2[nH]nc(-c3cnco3)c2n1` (single isomer, unassigned) [Example 31, enantiomer 2, 1-((3-(Oxazol-5-yl)-1H-pyrazolo[4,3-b]pyridin-5-yl)oxy)-2,3-dihydro-1H-indene-5-carbonitrile]: the figures for the 50% inhibitory concentration (IC50) at LRRK2 WT and on LRRK2 G2019S were 100 to 1000 nM and less than 100 nM, respectively.

As to `N#Cc1ccc2c(c1)CCC[C@H]2Oc1cc2c(-c3cnco3)n[nH]c2cn1` (single isomer, unassigned) [Example 32, enantiomer 1, 5-((3-(Oxazol-5-yl)-1H-pyrazolo[3,4-c]pyridin-5-yl)oxy)-5,6,7,8-tetrahydronaphthalene-2-carbonitrile], the half-inhibitory concentration (IC50) at LRRK2 WT is 1000 to 10000 nM; at LRRK2 G2019S it was 100 to 1000 nM.

Consider `N#Cc1ccc2c(c1)CCC[C@H]2Oc1cc2c(-c3cnco3)n[nH]c2cn1` (single isomer, unassigned) [Example 32, enantiomer 2, 5-((3-(Oxazol-5-yl)-1H-pyrazolo[3,4-c]pyridin-5-yl)oxy)-5,6,7,8-tetrahydronaphthalene-2-carbonitrile], for which the IC50 at LRRK2 WT and at LRRK2 G2019S was less than 100 nM in each case.

`N#Cc1ccc2c(c1)CCC[C@@H]2Nc1cc2c(-c3cnco3)n[nH]c2cn1` (single isomer, unassigned) [Example 33, enantiomer 1, 5-((3-(Oxazol-5-yl)-1H-pyrazolo[3,4-c]pyridin-5-yl)amino)-5,6,7,8-tetrahydronaphthalene-2-carbonitrile]: the IC50 on LRRK2 WT and at LRRK2 G2019S was less than 100 nM throughout.
